Measurements taken from patent publication US10632122B2, “Compositions and methods for treating toxoplasmosis, cryptosporidiosis and other apicomplexan protozoan related diseases” (University of Washington, priority 2015, dated 2020).

Key:
[1] = Rat PK following IV and PO dosing; conditions: PO vs IV, rats
N. caninum = experiment: Mice experimentally infected with N. caninum; design: species or system Balb/c mice; conditions: mouse, in vivo

Row | Structure (SMILES) | bioavailability [1] | treatment of N. caninum infected mice (N. caninum)
1 | CC(C)Cn1nc(-c2ccc3cc(OCC(C)(C)O)ccc3c2)c2c(N)ncnc21 [Example 33, 1-(6-(4-amino-1-isobutyl-1H-pyrazolo[3,4-d]pyrimidin-3-yl)naphthalen-2-yloxy)-2-methylpropan-2-ol] | essentially complete bioavailability | –
2 | CCOc1ccc2cc(-c3nn(CC4CCN(C)CC4)c4ncnc(N)c34)ccc2c1 [Compound 150] | – | treats infected mice and rids of N. caninum infection in brain and fetuses
